The source of these data is patent publication US20110209228A1, “METHOD OF TREATMENT USING ANTIMICROBIAL COMPOSITION” (priority 2008, published 2011).

The test system of one experiment is E. coli TOP10. Kind of experiment: growth inhibition screen by expression of the peptide in host bacteria (pBAD/gIIIA, L-arabinose induction, OD600). The class given is cell-based. The following applies: E. coli TOP10, OD600 before and 4 hours after L-arabinose induction.
The subject of another experiment is E. coli DH5α. Kind of experiment: microbroth dilution method, peptide and antibiotic combination. Format: cell-based. On the procedure:
To determine whether or not antimicrobial peptides as described herein act in a synergistic manner with antibiotic compounds, a microbroth dilution method was performed against E. coli DH5α performed according to the guidelines of the National Committee for Clinical Laboratory Standards.

Setting [1] is: antibiotic alone (—), E. coli DH5α.
[2] abbreviates: in combination with SEQ ID NO: 7, E. coli DH5α.
Where [3] appears, read: in combination with SEQ ID NO: 8, E. coli DH5α.

Turning to “5: antimicrobial peptide produced by mutagenesis based on SEQ ID NO: 7 and/or 8 (chain 1 SSRSAAGTIWEFEAF; chain 2 MVKRGLGKNLKRRATKIGNGIKNTLRNFNVVFPIPRPG; Consensus sequence of antimicrobial peptide; Antimicrobial peptide 5) [compound 5]”, the “antimicrobial activity: inhibiting bacterial growth and/or killing bacteria on expression (in words)” value in the experiment with E. coli TOP10 is listed as “having antimicrobial activity”. Same read-out and setting: the entry for “10: antimicrobial peptide produced by mutagenesis based on SEQ ID NO: 7 and/or 8 (MVKRGFGKRLRKRPKKFRNSIKKRLKNFNVVFPVPRPG; antimicrobial peptide A12) [compound 10]” is “having antimicrobial activity”. In the case of “13: antimicrobial peptide produced by mutagenesis based on SEQ ID NO: 7 and/or 8 (MVKRGFWKSLKRKLKKFGMILGID; Antimicrobial peptide 13) [compound 13]”, the “antimicrobial activity: inhibiting bacterial growth and/or killing bacteria on expression (in words)” value with E. coli TOP10 is reported as “having antimicrobial activity”. Same read-out and setting: the value for “20: antimicrobial peptide produced by mutagenesis based on SEQ ID NO: 7 and/or 8 (MVKRGFGESLRRRVTKLRDDIKKH; Antimicrobial peptide 20) [compound 20]” was “having antimicrobial activity”; that for “28: antimicrobial peptide produced by mutagenesis based on SEQ ID NO: 7 and/or 8 (chain 1 MVLGGFSRCRWLEEKLRDFMKNLVVRIAG; chain 2 MVKRGLGEKLRRRPKKFGIVLGIH; Antimicrobial peptide F7; Antimicrobial peptide 28) [compound 28]” was “having antimicrobial activity”.

As for `CC1(C)S[C@@H]2[C@H](NC(=O)[C@H](N)c3ccccc3)C(=O)N2[C@H]1C(=O)O` [Ampicillin], the results for the MIC of antibiotic with E. coli DH5α (setting [1]), with E. coli DH5α (setting [2]) and with E. coli DH5α (setting [3]) were 2 µg/mL, 2 µg/mL and 4 µg/mL, respectively. As to `O=C(N[C@H](CO)[C@H](O)c1ccc([N+](=O)[O-])cc1)C(Cl)Cl` [Chloramphenicol], the MIC of antibiotic in the experiment on E. coli DH5α (setting [1]) was 4 µg/mL; with E. coli DH5α (setting [2]), 1 µg/mL; in the experiment on E. coli DH5α (setting [3]), 2 µg/mL. Regarding `CN(C)[C@@H]1C(O)=C(C(N)=O)C(=O)[C@@]2(O)C(O)=C3C(=O)c4c(O)cccc4[C@@](C)(O)[C@H]3C[C@@H]12` [Tetracycline], the MIC of antibiotic in the experiment with E. coli DH5α (setting [1]) stood at 2 µg/mL; in the experiment on E. coli DH5α (setting [2]), 0.25 µg/mL; with E. coli DH5α (setting [3]), 0.5 µg/mL. “A4: antimicrobial peptide produced by mutagenesis based on SEQ ID NO: 7 and/or 8 (MVKRGFGKNLRRRPTKFRNSIRNRLKNFNIEFPVPRQG; Antimicrobial peptide A4)”: the “antimicrobial activity: inhibiting bacterial growth and/or killing bacteria on expression (in words)” value with E. coli TOP10 is recorded as “having antimicrobial activity”. Still for that read-out and setting: the value for “A5: antimicrobial peptide produced by mutagenesis based on SEQ ID NO: 7 and/or 8 (MVKRGFWKKLKRKAKKFRNSIRKTLKNFNIIIPVPLPG; Antimicrobial peptide A5)” was “having antimicrobial activity”. Still for that read-out and setting: the value for “A6: antimicrobial peptide produced by mutagenesis based on SEQ ID NO: 7 and/or 8 (MVKRGLGKKLKKKPKKFRNSIKKRLKNFNIEIPIPRQG; Antimicrobial peptide A6)” was “having antimicrobial activity”; that for “A10: antimicrobial peptide produced by mutagenesis based on SEQ ID NO: 7 and/or 8 (MVKRGFGKKLKKKAKKFRNSIRKRLKNFNVKIPVPLPG; Antimicrobial peptide A10)” was “having antimicrobial activity”.

On to “A11: antimicrobial peptide produced by mutagenesis based on SEQ ID NO: 7 and/or 8 (MVKRGFGKKLRKRATKFRNSIRKRLKNFNIIFPVPRQG; Antimicrobial peptide A11)”, for which the “antimicrobial activity: inhibiting bacterial growth and/or killing bacteria on expression (in words)” value with E. coli TOP10 is listed as “having antimicrobial activity”.

Consider “A12: antimicrobial peptide produced by mutagenesis based on SEQ ID NO: 7 and/or 8 (MVKRGFGKRLRKRPKKFRNSIKKRLKNFNVVFPVPRPG; antimicrobial peptide A12)”, for which the “antimicrobial activity: inhibiting bacterial growth and/or killing bacteria on expression (in words)” value in the experiment with E. coli TOP10 is given as “having antimicrobial activity”. Same read-out and setting: the value for “B1: peptide by mutagenesis based on a consensus sequence for antimicrobial C-terminal fragments of cathelicidin proteins (MVLGDLLRRVGGKFEEFFGKIRETIRTIRICSHLLLRGSSRSAAGTIWEFEAF; Antimicrobial peptide B1)” was “having antimicrobial activity”. Turning to “E3: peptide by mutagenesis based on a consensus sequence for antimicrobial C-terminal fragments of cathelicidin proteins (MVLGGCLRKGGGRLVGMFGRFRATLKNLLDMLGRRIEG; Antimicrobial peptide E3)”, in the experiment with E. coli TOP10, the “antimicrobial activity: inhibiting bacterial growth and/or killing bacteria on expression (in words)” value is listed as “having antimicrobial activity”.

In the case of “F4: peptide by mutagenesis based on a consensus sequence for antimicrobial C-terminal fragments of cathelicidin proteins (MVLGGRSGKVRERFRRIFERYEAKIRTFMEILAAPSQD; Antimicrobial peptide F4)”, the “antimicrobial activity: inhibiting bacterial growth and/or killing bacteria on expression (in words)” value with E. coli TOP10 is recorded as “having antimicrobial activity”. In the case of “F6: peptide by mutagenesis based on a consensus sequence for antimicrobial C-terminal fragments of cathelicidin proteins (MVLRGFLKRFGGKILRNRGRDGATLKDFLKMIATRIPH; Antimicrobial peptide F6)”, the “antimicrobial activity: inhibiting bacterial growth and/or killing bacteria on expression (in words)” value with E. coli TOP10 is “having antimicrobial activity”. As to “F7: peptide by mutagenesis based on a consensus sequence for antimicrobial C-terminal fragments of cathelicidin proteins (MVLGGFSRCRWLEEKLRDFMKNLVVRIAG; Antimicrobial peptide F7)”, the “antimicrobial activity: inhibiting bacterial growth and/or killing bacteria on expression (in words)” value with E. coli TOP10 is reported as “having antimicrobial activity”. On the same count and under the same terms, the entry for “F12: peptide by mutagenesis based on a consensus sequence for antimicrobial C-terminal fragments of cathelicidin proteins (MVIGDRFKKFRERLVELRGRNGARLRPLMNIMGGRSAG; Antimicrobial peptide F12)” is “having antimicrobial activity”; for “G9: peptide by mutagenesis based on a consensus sequence for antimicrobial C-terminal fragments of cathelicidin proteins (MVLGGFLRNVRWEIWKKGLSLFCQISYFVVRSSSRSAAGTIWEFEAF; Antimicrobial peptide G9)” it is “having antimicrobial activity”. With “G10: peptide by mutagenesis based on a consensus sequence for antimicrobial C-terminal fragments of cathelicidin proteins (MVIRGLLKRGKGRILGLLGRNGKRLRAIMDMFRRRSQQ; Antimicrobial peptide G10)”, the “antimicrobial activity: inhibiting bacterial growth and/or killing bacteria on expression (in words)” value in the experiment with E. coli TOP10 is “having antimicrobial activity”.

Regarding “H6: peptide by mutagenesis based on a consensus sequence for antimicrobial C-terminal fragments of cathelicidin proteins (MVIGDCLRRVRGSLENTVRDLNQGLGILRLRW; Antimicrobial peptide H6)”, in the experiment with E. coli TOP10, the “antimicrobial activity: inhibiting bacterial growth and/or killing bacteria on expression (in words)” value is recorded as “having antimicrobial activity”.

B1: 27: antimicrobial peptide produced by mutagenesis based on SEQ ID NO: 7 and/or 8 (peptide)
chain 1: MVLRGFLKRFGGKILRNRGRDGATLKDFLKMIATRIPH
chain 2: MVKRGFGKRLRRKATKLGMILRRH
modifications: Antimicrobial peptide F6; Antimicrobial peptide 27
For B1, in the experiment on E. coli TOP10, the “antimicrobial activity: inhibiting bacterial growth and/or killing bacteria on expression (in words)” value is “having antimicrobial activity”.

B2: B6: peptide by mutagenesis based on a consensus sequence for antimicrobial C-terminal fragments of cathelicidin proteins (peptide)
chain: MVGIVSGEFRGSFEKCVGGIDKSLGILRLSWDLVLRGILRLSWDLVLRGSSRSAAGTIWEFEAF
modifications: Antimicrobial peptide B6
As to B2, in the experiment with E. coli TOP10, the “antimicrobial activity: inhibiting bacterial growth and/or killing bacteria on expression (in words)” value was “having antimicrobial activity”.
